Values quoted from earlier work as cited in patent publication US20250288577A1, “METHODS OF TREATING A VIRUS INFECTION AND METHODS OF INHIBITING VIRAL REPLICATION” (CORNELL UNIVERSITY, priority 2022, published 2025).

Legend:
Adenovirus = conditions: reported in literature
influenza A = conditions: reported in literature

In the case of `O=C(Cc1cccc(OC(F)(F)F)c1)Nc1ccc(CCCCc2nnc(NC(=O)Cc3ccccn3)s2)nn1` [CB839, Telaglenastat], the “block of Adenovirus” value (Adenovirus) is listed as “block” and the “block of influenza A” value (influenza A) is listed as “block”.
